{"source": "ChEMBL document CHEMBL1201862", "about": "“PubChem BioAssay data set” (2004)", "key": {"[1]": {"biological_target": "T1, Short transient receptor potential channel 4 (Mus musculus, UniProt Q9QUQ5)", "T1 sequence (Q9QUQ5 whole entry)": "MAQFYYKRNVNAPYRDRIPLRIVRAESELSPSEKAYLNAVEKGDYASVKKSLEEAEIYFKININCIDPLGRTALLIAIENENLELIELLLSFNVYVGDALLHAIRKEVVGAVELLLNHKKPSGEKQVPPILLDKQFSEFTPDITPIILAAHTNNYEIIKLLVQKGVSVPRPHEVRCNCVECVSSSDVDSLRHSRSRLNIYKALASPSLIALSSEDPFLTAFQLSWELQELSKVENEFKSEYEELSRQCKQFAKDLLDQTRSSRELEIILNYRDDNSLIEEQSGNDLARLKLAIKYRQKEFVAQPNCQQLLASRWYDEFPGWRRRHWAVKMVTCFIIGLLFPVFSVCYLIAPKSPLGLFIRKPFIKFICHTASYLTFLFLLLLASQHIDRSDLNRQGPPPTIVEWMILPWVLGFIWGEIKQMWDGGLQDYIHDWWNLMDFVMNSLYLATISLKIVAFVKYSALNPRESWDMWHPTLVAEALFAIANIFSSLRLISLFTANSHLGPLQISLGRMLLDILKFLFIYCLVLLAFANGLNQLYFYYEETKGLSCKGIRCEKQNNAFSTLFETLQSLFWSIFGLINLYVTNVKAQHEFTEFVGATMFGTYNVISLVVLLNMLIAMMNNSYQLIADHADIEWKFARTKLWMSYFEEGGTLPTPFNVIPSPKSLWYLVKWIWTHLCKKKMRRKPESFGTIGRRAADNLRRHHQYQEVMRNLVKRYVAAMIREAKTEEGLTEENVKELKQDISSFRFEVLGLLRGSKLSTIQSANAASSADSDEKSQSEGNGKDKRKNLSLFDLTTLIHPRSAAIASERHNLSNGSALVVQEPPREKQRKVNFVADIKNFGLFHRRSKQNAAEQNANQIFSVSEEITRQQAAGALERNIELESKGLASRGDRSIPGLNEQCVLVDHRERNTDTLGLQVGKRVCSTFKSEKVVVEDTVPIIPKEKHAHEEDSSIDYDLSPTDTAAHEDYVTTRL", "test": "block of DAMGO-driven TRPC4 calcium entry – cell-based, HEK293 TRPC4/mu-opioid, Fluo-4 calcium, dose response (AID 434942);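 further: potency of inhibitors blocking the TRPC4 calcium response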", "format": "functional"}, "[2]": {"test": "reduced cellular PGC1a acetyl-lysine signal – cell-based, cherry-picked samples, dose response (AID 720514);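 further: potency may reflect raised or lowered acetylation signal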", "format": "functional"}, "[3]": {"biological_target": "Kappa-type opioid receptor (Homo sapiens, UniProt P41145)", "sequence (P41145 whole entry)": "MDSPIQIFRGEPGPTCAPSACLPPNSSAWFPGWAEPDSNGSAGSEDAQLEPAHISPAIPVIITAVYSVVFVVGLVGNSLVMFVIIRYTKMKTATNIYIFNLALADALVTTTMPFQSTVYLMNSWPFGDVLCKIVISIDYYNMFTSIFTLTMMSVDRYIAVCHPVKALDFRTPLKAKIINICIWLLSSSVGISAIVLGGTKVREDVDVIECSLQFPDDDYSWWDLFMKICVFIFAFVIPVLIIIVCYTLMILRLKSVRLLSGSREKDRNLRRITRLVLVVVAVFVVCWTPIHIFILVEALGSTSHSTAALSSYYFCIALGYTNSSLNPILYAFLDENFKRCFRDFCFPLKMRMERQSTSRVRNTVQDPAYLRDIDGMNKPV", "test": "Late-stage fluorescence-based cell-based dose response assay for antagonists of kappa opioid receptor 1 (OPRK1).", "format": "functional"}, "[4]": {"biological_target": "Mu-type opioid receptor (Homo sapiens, UniProt P35372)", "sequence (P35372 whole entry)": "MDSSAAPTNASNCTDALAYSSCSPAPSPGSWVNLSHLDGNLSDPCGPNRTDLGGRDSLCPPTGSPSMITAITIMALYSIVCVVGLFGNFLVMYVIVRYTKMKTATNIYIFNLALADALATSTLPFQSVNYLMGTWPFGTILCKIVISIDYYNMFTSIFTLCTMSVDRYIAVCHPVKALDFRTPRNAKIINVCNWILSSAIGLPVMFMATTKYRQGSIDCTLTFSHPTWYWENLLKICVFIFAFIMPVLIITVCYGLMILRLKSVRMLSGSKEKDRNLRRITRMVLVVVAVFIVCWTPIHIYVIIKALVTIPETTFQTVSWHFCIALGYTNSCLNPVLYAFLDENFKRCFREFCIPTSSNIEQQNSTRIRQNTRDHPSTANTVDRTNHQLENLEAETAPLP", "test": "Late-stage results from the probe development effort to identify antagonists of OPRK1: luminescence-based cell-based dose response OPRM1 counterscreen, Set 2.", "format": "functional"}, "[5]": {"biological_target": "Delta-type opioid receptor (Homo sapiens, UniProt P41143)", "sequence (P41143 whole entry)": "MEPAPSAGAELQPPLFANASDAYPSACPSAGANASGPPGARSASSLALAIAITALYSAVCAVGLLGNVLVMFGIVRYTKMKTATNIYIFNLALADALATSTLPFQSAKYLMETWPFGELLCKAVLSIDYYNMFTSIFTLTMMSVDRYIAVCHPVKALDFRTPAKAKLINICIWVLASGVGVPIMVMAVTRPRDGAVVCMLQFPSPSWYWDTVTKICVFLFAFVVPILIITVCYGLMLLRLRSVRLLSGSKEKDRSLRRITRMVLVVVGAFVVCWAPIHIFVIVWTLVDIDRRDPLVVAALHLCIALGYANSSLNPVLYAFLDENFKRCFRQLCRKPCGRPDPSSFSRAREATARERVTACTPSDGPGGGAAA", "test": "Late-stage results from the probe development effort to identify antagonists of OPRK1: fluorescence-based cell-based dose response OPRD1 counterscreen, Set 2.", "format": "functional"}, "[6]": {"biological_target": "Sphingosine 1-phosphate receptor 1 (Homo sapiens, UniProt P21453)", "sequence (P21453 whole entry)": "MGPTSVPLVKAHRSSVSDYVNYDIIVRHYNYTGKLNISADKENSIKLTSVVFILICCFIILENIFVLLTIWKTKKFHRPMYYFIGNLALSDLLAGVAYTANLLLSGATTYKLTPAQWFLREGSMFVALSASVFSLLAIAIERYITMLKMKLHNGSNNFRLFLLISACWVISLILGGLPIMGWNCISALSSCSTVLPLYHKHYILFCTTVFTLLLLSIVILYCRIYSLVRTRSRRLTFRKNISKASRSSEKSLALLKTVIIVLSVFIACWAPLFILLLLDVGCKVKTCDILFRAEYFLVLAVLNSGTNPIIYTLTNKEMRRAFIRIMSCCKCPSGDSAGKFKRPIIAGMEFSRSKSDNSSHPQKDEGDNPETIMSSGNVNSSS", "test": "Late-stage counterscreen for antagonists of kappa opioid receptor 1 (OPRK1): fluorescence-based cell-based dose response assay to identify antagonists of Sphingosine 1-Phosphate Receptor 1 (S1P1).", "format": "functional"}, "[7]": {"test": "cells", "conditions": "HEK293"}, "[8]": {"test_system": "HeLa", "test": "viability loss in HeLa cells – cell-based, ATP luminescence, cherry-pick samples, cytotoxicity control, dose response (AID 687004)", "format": "functional", "conditions": "Homo sapiens"}, "[9]": {"test_system": "HEK293", "test": "viability loss in HEK293T cells – cell-based, ATP luminescence, cherry-pick samples, cytotoxicity control, dose response (AID 687005);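 further: cells exposed to compound for 48 hours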", "format": "functional", "conditions": "Homo sapiens"}, "[10]": {"test": "HEK293 Cytotoxicity Assay Measured in Cell-Based System Using Plate Reader - 7071-01_Inhibitor_Dose_CherryPick_Activity_Set2.", "format": "functional"}}, "note": "The source made the active and inactive calls.", "data": [{"smiles": "CCOC(=O)C1(Cc2cccc(F)c2)CCN(Cc2c(C)nn(CC)c2C)CC1", "values": [{"measurement": "EC50", "setting": "[1]", "value": "1.06 µM (active)"}, {"measurement": "AC50", "setting": "[2]", "value": "28.8 µM (active)"}]}, {"smiles": "COc1cc([N+](=O)[O-])c(OC)cc1SCc1nnc(S)n1-c1ccc(C)cc1", "values": [{"measurement": "IC50", "setting": "[3]", "value": "2.2 µM (active)"}, {"measurement": "IC50", "setting": "[4]", "value": "> 50 µM (inactive)"}, {"measurement": "IC50", "setting": "[5]", "value": "> 50 µM (inactive)"}, {"measurement": "IC50", "setting": "[6]", "value": "> 50 µM (inactive)"}]}, {"smiles": "Cc1c(C(=O)NCc2ccc(Cl)c(Cl)c2)sc(=O)n1Cc1cccc(F)c1", "values": [{"measurement": "AC50", "setting": "[7]", "value": "> 52 µM (inactive)"}]}, {"smiles": "Cc1cccc(-c2ccc([C@@H]3[C@H]4CN(C(=O)c5ccc6c(c5)OCO6)CCCCN4[C@H]3CO)cc2)c1", "values": [{"measurement": "AC50", "setting": "[8]", "value": "20.2 µM (active)"}, {"measurement": "AC50", "setting": "[9]", "value": "8.23 µM (active)"}, {"measurement": "AC50", "setting": "[10]", "value": "8.23 µM (active)"}]}]}
